From US11932636B2, “RAD51 inhibitors” (Cyteir Therapeutics, Inc., priority 2019, dated 2024)

These molecules were tested on Daudi cells (AID positive) (assay: Compound primary screening: cell death in AID positive Daudi cells (Cell-Titer Glo, Day 7)). Details: Homo sapiens, 168 h; Daudi cells, AID positive; cell death on Day 7, Cell-Titer Glo; read-out: Cellular activity in AID + (Daudi).
Type: cell-based
Method: Example 149. Compound Primary Screening
AID expressing cells are dependent upon RAD51 for survival; inhibiting RAD51 in AID positive cells results in a cytotoxic effect.
A 96 well u-bottom plate was prepared by writing the experiment number, plate number, date and initials in the top right corner of the plate lid. With a sterile 300 ml reservoir, and 25 ml serological pipette, evaporation buffer media was pipetted into reservoir in 25 ml increments. Using the liquid handler, 150 ul of evaporation buffer media was pipetted from reservoir into rows A and H, and Columns 1 and 12 of the 96 well u-bottom plate. Cell cultures were counted to obtain the density of cells per ml, and the culture viability. The cell density information was used to obtain 1,000,000 cells from culture using a 5 mL serological pipette into an epi tube. The cell density information from the culture was used to calculate the number of cells and volume of media needed for the assay to seed 1250 cells in 130 ul of media per available culture well in the 96 well u-bottom plate. Rows B through F were used for cells (50 wells in total), with row G left for an empty media control. The calculation was overestimated by 10 mL to account for the dead volume in the 300 ml reservoir. Once the media volume was calculated, the appropriate volume of media was pipetted in 25 mL increments into the 250 mL bottle using a 25 mL serological pipette. The 250 ml bottle was capped tightly, and placed into a 37° C. water bath for 2 minutes. While the culture media was warming, 10 mL of fresh media was pipetted from the 500 mL culture media bottle into a sterile 25 mL reservoir. Using the Eppendorf multichannel pipette, 130 ul of media was pipetted from the 25 mL reservoir into row G of the 96 well u-bottom plate. Once the 250 mL bottle of media was warmed, the volume of culture needed was pipetted into the bottle, and mixed gently with a 25 mL serological pipette as to not create bubbles, and then the contents of the bottle were pipetted into a new 300 mL reservoir. Using the liquid handler, 130 ul of culture was pipetted from the 300 mL reservoir into rows B through F of the 96 well u-bottom plate. Once the culture was added, the plate was placed into a 37° C. incubator until the compound master plate was prepared for use.
Two 96 well u-bottom plates were prepared by writing the master plate name in the upper right corner of the plate lid. Labeling one DMSO master and the other Media Master. The compounds of interest were obtained from the laboratory freezer, and placed into a 25 well storage box with a lid, and set the box aside. The compounds were vortexed after thawing but before use. Using an automatic multichannel pipette, 20 ul of 100% DMSO was pipetted into wells B3-B11 through G3-G11 of the DMSO master plate. For each compound on the master plate, 50 ul of the compound were pipetted in the appropriate well of row 2 (reference plate map to determine appropriate well). A serial dilution was prepared beginning by aspirating 20 ul from row 2 and mixing with row 3, repeating until row 11 was reached. Using the liquid handler, 194 ul of Daudi media was dispensed into wells B2-B11 through G2-G11 of the Media master plate. Using the liquid handler, 6 ul from the DMSO master plate was aspirated and dispensed into the media master plate, mixing 100 ul twice.
Compounds from master plate were then added to the culture plate. The culture plates were removed from the incubator, and set inside the biosafety cabinet. Using a liquid handler, 20 ul from wells B2 to B11 through G2 to G11 of master plate were aspirated, and dispensed into wells B2 to B11 through G2 to G11 of culture plate. This set was continued with each culture plate. Once the culture plates acquired their 20 ul of compound dilutions, they were placed back into the incubator, until their reads on Day 7 of experiment.
Cell death was measured on Day 7 of the experiment using Cell-Titer Glo and a Promega Plate reader.
In the case of COc1cc(-c2ccc(-c3cnc([C@H]4CC[C@H](NC(=O)OC(C)C)CC4)s3)c(S(=O)(=O)NC(C)(C)C)c2)c(OC)nn1 [Compound 13, isopropyl (trans-4-(5-(2-(N-(tert-butyl)sulfamoyl)-4-(3,6-dimethoxypyridazin-4-yl)phenyl)thiazol-2-yl)cyclohexyl)carbamate], the EC50 is reported as 100 to 1000 nM. Molecule Cc1ncc(-c2ccc(-c3cnc([C@H]4CC[C@H](NC(=O)OC(C)C)CC4)s3)c(S(=O)(=O)NC(C)(C)C)c2)s1 [Compound 14, isopropyl (trans-4-(5-(2-(N-(tert-butyl)sulfamoyl)-4-(2-methylthiazol-5-yl)phenyl)thiazol-2-yl)cyclohexyl)carbamate] has an EC50 of 1000 to 10000 nM. CC(C)OC(=O)N[C@H]1CC[C@H](c2ncc(-c3ccc(-c4ccc5ncsc5c4)cc3S(=O)(=O)NC(C)(C)C)s2)CC1 [Compound 15, isopropyl (trans-4-(5-(4-(benzo[d]thiazol-6-yl)-2-(N-(tert-butyl)sulfamoyl)phenyl)thiazol-2-yl)cyclohexyl)carbamate] was tested, and the EC50 was 1000 to 10000 nM. CC(C)OC(=O)N[C@H]1CC[C@H](c2ncc(-c3ccc(-c4cncc(CN(C)C)c4)cc3S(=O)(=O)NC(C)(C)C)s2)CC1 [Compound 16, isopropyl (trans-4-(5-(2-(N-(tert-butyl)sulfamoyl)-4-(5-((dimethylamino)methyl)pyridin-3-yl)phenyl)thiazol-2-yl)cyclohexyl)carbamate] was tested, and the EC50 was 1000 to 10000 nM. With Cc1[nH]ncc1-c1ccc(-c2cnc([C@H]3CC[C@H](NC(=O)OC(C)C)CC3)s2)c(S(=O)(=O)NC(C)(C)C)c1 [Compound 17, isopropyl (trans-4-(5-(2-(N-(tert-butyl)sulfamoyl)-4-(5-methyl-1H-pyrazol-4-yl)phenyl)thiazol-2-yl)cyclohexyl)carbamate] the EC50 was 1000 to 10000 nM. With CC(C)OC(=O)N[C@H]1CC[C@H](c2ncc(-c3ccc(-c4ccc(C#N)nc4)cc3S(=O)(=O)NC(C)(C)C)s2)CC1 [Compound 18, isopropyl (trans-4-(5-(2-(N-(tert-butyl)sulfamoyl)-4-(6-cyanopyridin-3-yl)phenyl)thiazol-2-yl)cyclohexyl)carbamate] the EC50 was 1000 to 10000 nM. For CC(C)OC(=O)N[C@H]1CC[C@H](c2ncc(-c3ccc(-c4ccc5nn[nH]c5c4)cc3S(=O)(=O)NC(C)(C)C)s2)CC1 [Compound 19, isopropyl (trans-4-(5-(4-(1H-benzo[d][1,2,3]triazol-6-yl)-2-(N-(tert-butyl)sulfamoyl)phenyl)thiazol-2-yl)cyclohexyl)carbamate], the EC50 was > 10000 nM. CC(C)OC(=O)N[C@H]1CC[C@H](c2ncc(-c3ccc(-c4ccc(CO)nc4)cc3S(=O)(=O)NC(C)(C)C)s2)CC1 [Compound 20, isopropyl (trans-4-(5-(2-(N-(tert-butyl)sulfamoyl)-4-(6-(hydroxymethyl)pyridin-3-yl)phenyl)thiazol-2-yl)cyclohexyl)carbamate] was tested, and the EC50 was 1000 to 10000 nM. Cc1c[nH]c2cc(-c3ccc(-c4cnc([C@H]5CC[C@H](NC(=O)OC(C)C)CC5)s4)c(S(=O)(=O)NC(C)(C)C)c3)ccc12 [Compound 21, isopropyl (trans-4-(5-(2-(N-(tert-butyl)sulfamoyl)-4-(3-methyl-1H-indol-6-yl)phenyl)thiazol-2-yl)cyclohexyl)carbamate] showed an EC50 of 1000 to 10000 nM. CC(C)OC(=O)N[C@H]1CC[C@H](c2ncc(-c3ccc(-c4ccnc(C(F)(F)F)c4)cc3S(=O)(=O)NC(C)(C)C)s2)CC1 [Compound 22, isopropyl (trans-4-(5-(2-(N-(tert-butyl)sulfamoyl)-4-(2-(trifluoromethyl)pyridin-4-yl)phenyl)thiazol-2-yl)cyclohexyl)carbamate] gave an EC50 of 1000 to 10000 nM. CC(C)OC(=O)N[C@H]1CC[C@H](c2ncc(-c3ccc(O)cc3S(=O)(=O)NC(C)(C)C)s2)CC1 [Compound 23, isopropyl (trans-4-(5-(2-(N-(tert-butyl)sulfamoyl)-4-hydroxyphenyl)thiazol-2-yl)cyclohexyl)carbamate] was tested, and the EC50 was 100 to 1000 nM. CC(C)OC(=O)N[C@H]1CC[C@H](c2ncc(-c3ccc(O)cc3S(N)(=O)=O)s2)CC1 [Compound 24, isopropyl (trans-4-(5-(4-hydroxy-2-sulfamoylphenyl)thiazol-2-yl)cyclohexyl)carbamate] was tested, and the EC50 was 100 to 1000 nM. With CC(C)OC(=O)N[C@H]1CC[C@H](c2ncc(-c3ccc(OCCNC(=O)OC(C)(C)C)cc3S(=O)(=O)NC(C)(C)C)s2)CC1 [Compound 25, isopropyl N-[trans-4-[5-[4-[2-(tert-butoxycarbonylamino)ethoxy]-2-(tert-butylsulfamoyl)phenyl]thiazol-2-yl]cyclohexyl]carbamate] the EC50 was 1000 to 10000 nM. Molecule CC(C)OC(=O)N[C@H]1CC[C@H](c2ncc(-c3ccc(OCCN)cc3S(=O)(=O)NC(C)(C)C)s2)CC1 [Compound 26, isopropyl (trans-4-(5-(4-(2-aminoethoxy)-2-(N-(tert-butyl)sulfamoyl)phenyl)thiazol-2-yl)cyclohexyl)carbamate] has an EC50 of 1000 to 10000 nM. For CC(C)OC(=O)N[C@H]1CC[C@H](c2ncc(-c3ccc(OC(C)C)cc3S(=O)(=O)NC(C)(C)C)s2)CC1 [Compound 27, isopropyl (trans-4-(5-(2-(N-(tert-butyl)sulfamoyl)-4-isopropoxyphenyl)thiazol-2-yl)cyclohexyl)carbamate], the EC50 was 1000 to 10000 nM. In the case of COc1ccc(-c2cnc([C@H]3CC[C@H](NC(=O)OC(C)C)CC3)s2)c(S(=O)(=O)NC(C)(C)C)c1 [Compound 28, isopropyl (trans-4-(5-(2-(N-(tert-butyl)sulfamoyl)-4-methoxyphenyl)thiazol-2-yl)cyclohexyl)carbamate], the EC50 is reported as > 10000 nM. For CC(C)OC(=O)N[C@H]1CC[C@H](c2ncc(-c3ccc(OCCN(C)C(=O)OC(C)(C)C)cc3S(=O)(=O)NC(C)(C)C)s2)CC1 [Compound 29, tert-butyl (2-(3-(N-(tert-butyl)sulfamoyl)-4-(2-(trans-4-((isopropoxycarbonyl)amino)cyclohexyl)thiazol-5-yl)phenoxy)ethyl)(methyl)carbamate], the EC50 was 1000 to 10000 nM. In the case of CC(C)OC(=O)N[C@H]1CC[C@H](c2ncc(-c3ccc(OCCN(C)C)cc3S(=O)(=O)NC(C)(C)C)s2)CC1 [Compound 30, isopropyl (trans-4-(5-(2-(N-(tert-butyl)sulfamoyl)-4-(2-(dimethylamino)ethoxy)phenyl)thiazol-2-yl)cyclohexyl)carbamate], the EC50 is reported as > 10000 nM. In the case of COCCOc1ccc(-c2cnc([C@H]3CC[C@H](NC(=O)OC(C)C)CC3)s2)c(S(=O)(=O)NC(C)(C)C)c1 [Compound 31, isopropyl (trans-4-(5-(2-(N-(tert-butyl)sulfamoyl)-4-(2-methoxyethoxy)phenyl)thiazol-2-yl)cyclohexyl)carbamate], the EC50 is reported as 1000 to 10000 nM. With CNCCOc1ccc(-c2cnc([C@H]3CC[C@H](NC(=O)OC(C)C)CC3)s2)c(S(=O)(=O)NC(C)(C)C)c1 [Compound 32, isopropyl (trans-4-(5-(2-(N-(tert-butyl)sulfamoyl)-4-(2-(methylamino)ethoxy)phenyl)thiazol-2-yl)cyclohexyl)carbamate] the EC50 was > 10000 nM. In the case of CC(C)COCc1ccc(-c2cnc([C@H]3CC[C@H](NC(=O)OC(C)C)CC3)s2)c(S(=O)(=O)NC(C)(C)C)c1 [Compound 33, isopropyl (trans-4-(5-(2-(N-(tert-butyl)sulfamoyl)-4-(isobutoxymethyl)phenyl)thiazol-2-yl)cyclohexyl)carbamate], the EC50 is reported as 100 to 1000 nM. CC(C)COCc1ccc(-c2cnc([C@H]3CC[C@H](NC(=O)OC4COC4)CC3)s2)c(S(=O)(=O)NC(C)(C)C)c1 [Compound 34, oxetan-3-yl trans-N-[4-[5-[2-(tert-butylsulfamoyl)-4-(isobutoxymethyl)phenyl]thiazol-2-yl]cyclohexyl]carbamate] gave an EC50 of 1000 to 10000 nM. In the case of CCNS(=O)(=O)c1cc(C#N)ccc1-c1cnc([C@H]2CC[C@H](NC(=O)OC(C)C)CC2)s1 [Compound 36, isopropyl trans-N-[4-[5-[4-cyano-2-(ethylsulfamoyl)phenyl]thiazol-2-yl]cyclohexyl]carbamate], the EC50 is reported as 1000 to 10000 nM.
